Test results taken from article PMC6212833 (mBio, 2018).
Where two headings read alike, the source gives them in different places. Marks after values point to notes of the source that are not given here.

What was measured:
[1] = system: B. mandrillaris trophozoites; test: Side-by-side dose response, trophozoite viability; format: cell-based, Balamuthia mandrillaris; conditions: Balamuthia mandrillaris, 72 h, read-out: IC50, B. mandrillaris trophozoites, 72 h
Protocol: (§1) B. mandrillaris trophozoites were seeded at 4,000 amoebae per well into opaque and clear-bottom 96-well plates (Corning). Homogenous populations of B. mandrillaris cysts generated by galactose induction were seeded at 4,000 amoebae per well into opaque 96-well plates. HFF-1 (fibroblast), H4 (glial), U87 (glial), HEK-293T (kidney), and Hep-G2 (liver) cells were seeded at 3,000 cells per well in opaque 96-well plates 24 h prior to addition of drug. Stocks of nitroxoline (Selleck Chemicals) were dissolved in 100% DMSO at 10 mM. Stocks of azithromycin (Selleck Chemicals), pentamidine isethionate (Selleck Chemicals), and miltefosine (Selleck Chemicals) were dissolved in water at 10 mM. Drug stocks were serially diluted in water to generate 12-point dilution series, which were then used to treat assay wells containing B. mandrillaris or human cells at final concentrations ranging from 0.39 µM to 400 µM in 100-µl total well volumes. Control wells were treated with vehicle (DMSO or water) at concentrations corresponding to the final vehicle concentrations in each drug dilution series. After incubation for 72 h, 50 µl of CTG was added to all assay wells. Luminescence was measured with a Promega GloMax-Multi+ plate reader 2, 4, and […] after CTG addition. All dose-response experiments were performed with at least three independent biological replicates. IC50 values were determined as previously described. To quantify encystment under treated and untreated conditions, amoebae in individual assay wells were resuspended thoroughly and the number of cysts and number of trophozoites in 10-µl samples were counted by the use of a hemocytometer (SKC, Inc.). Cysts and trophozoites are morphologically distinct, making them simple to distinguish with bright-field microscopy (example images are shown in Fig. S1 in the supplemental material). Encystment assays were performed with three independent biological replicates.

[2] = system: B. mandrillaris cysts; test: Dose response, viability of preformed galactose-induced cysts; format: cell-based, Balamuthia mandrillaris; conditions: 72 h
Protocol: Following the findings of a previous study, encystment of B. mandrillaris was induced by galactose exposure ([74]). B. mandrillaris trophozoites were grown to log phase in axenic media, and galactose was added to reach a final concentration of 12% (vol/vol). Amoebae were cultured in the induction medium until trophozoites were no longer observed (approximately 10 days). Galactose-induced cysts transition back to trophozoites after approximately 3 days of incubation in galactose-free axenic medium. Therefore, all assays with cysts were completed in the induction medium. […] All incubation steps for B. mandrillaris growth were carried out at 37°C with 5% CO2.
as §1

[3] = Cytotoxicity dose response, U87; format: cell-based; conditions: human, U87 (glial) cells, unit not given in Table S3, drug concentrations in µM, read-out: CC50 U87 cell line
Protocol: as §1

[4] = Cytotoxicity dose response, H4; format: cell-based; conditions: human, H4 (glial) cells, unit not given in Table S3, drug concentrations in µM, read-out: CC50 H4 cell line
Protocol: as §1

[5] = Cytotoxicity dose response, HEK-293T; format: cell-based; conditions: human, HEK-293T (kidney) cells, unit not given in Table S3, drug concentrations in µM, read-out: CC50 HEK-293T cell line
Protocol: as §1

[6] = Cytotoxicity dose response, HFF-1; format: cell-based; conditions: human, HFF-1 (fibroblast) cells, unit not given in Table S3, drug concentrations in µM, read-out: CC50 HFF-1 cell line
Protocol: as §1

[7] = Cytotoxicity dose response, Hep-G2; format: cell-based; conditions: human, Hep-G2 (liver) cells, unit not given in Table S3, drug concentrations in µM, read-out: CC50 Hep-G2 cell line
Protocol: as §1

[8] = Cytotoxicity, mean of all cell lines; format: cell-based; conditions: human, U87, H4, HEK-293T, HFF-1 and Hep-G2 cell lines (mean of all), unit inferred
Protocol: as §1

[9] = system: B. mandrillaris; test: Encystment assay, counts of cysts and trophozoites; format: cell-based, Balamuthia mandrillaris; conditions: 72 h of treatment with different drug concentrations
Protocol: as §1

[10] = system: B. mandrillaris; test: Recrudescence assay on HFF-1 monolayer after drug treatment; format: cell-based, Balamuthia mandrillaris
[11] = system: B. mandrillaris trophozoites; test: Drug combination dose matrices, trophozoite viability (EOHSA model); format: cell-based, Balamuthia mandrillaris; conditions: 72 h
Protocol: Experiments measuring the effect of drug combinations were carried out similarly to the dose-response experiments described above. B. mandrillaris trophozoites were seeded into opaque 96-well plates (Corning) at a density of 4,000 amoebae per well and then treated with concentrations of nitroxoline that differed across the rows of each plate and with concentrations of either miltefosine or pentamidine isethionate that differed down the columns to generate 7-by-7 dose combination matrices. Final drug concentrations ranged from 0.5 to 10 µM, from 10 to 100 µM, and from 1 to 100 µM for nitroxoline, miltefosine, and pentamidine isethionate, respectively. After incubation with drug or vehicle was performed for 72 h, CTG was added to all assay wells and luminescence was measured with a Promega Glomax-Multi+ plate reader. The percent effect of each drug combination was calculated as the reduction in luminescence value relative to vehicle-only controls. The additive effect of drug combinations was assessed using the excess over highest single agent (EOHSA) model ([76], [77]). […] Drug combination experiments were performed with three independent replicates.

[12] = system: B. mandrillaris; parameters: method as in PMID 15347743, PMID 23869955, PMID 16579814; conditions: in vitro; cited from earlier work
[13] = system: B. mandrillaris trophozoites; test: microbe, parasite or virus in culture; format: cell-based, Balamuthia mandrillaris; conditions: Balamuthia mandrillaris, 72 h
[14] = system: B. mandrillaris trophozoites; test: Secondary screening dose response, B. mandrillaris trophozoites; format: cell-based, Balamuthia mandrillaris; conditions: Balamuthia mandrillaris, 72 h, read-out: B. mandrillaris IC50
Protocol: (§2) Secondary screening of hit compounds consisted of dose-response experiments to measure the toxicity of each compound to B. mandrillaris trophozoites, HFF-1 human fibroblast cells, and H4 human neuroglioma cells. Four 384-well plates were prepared prior to addition of drug as follows: one opaque plate (Corning) seeded with 3,000 HFF-1 cells per well in 60 µl complete media, one opaque plate seeded with 2,000 H4 cells per well in 60 µl complete media, one opaque plate containing 30 µl axenic media, and one clear plate (Corning) containing 30 µl axenic media. Opaque plates were used to measure the viability of trophozoites in the CTG assay, and clear plates were used for microscopic examination of cyst formation. HFF-1 and H4 plates were seeded 24 h prior to drug addition. The selected primary screen hits were added from 10 mM DMSO stocks into wells of all four test plates to reach final concentrations ranging from 0.06 µM to 30 µM (10 concentrations, 2-fold serial dilution). Negative-control wells received concentrations of DMSO corresponding to the amount of DMSO in each tested drug well (reaching a maximum of 0.3% DMSO). B. mandrillaris trophozoites were resuspended in axenic media and added to the plates containing drug dilutions in axenic media at a density of 3,000 amoebae per well in a final volume of 60 µl media. All plates were incubated for 72 h. Throughout the incubation period, the clear-bottom B. mandrillaris plate was monitored for large-scale changes to population encystment in response to drug treatment. After the 72-h incubation, 30 µl of CTG reagent was added to all wells of the opaque assay plates and luminescence was measured with a Promega GloMax-Multi+ plate reader at 2, 4, and 8 h after CTG addition.

[15] = system: HFF-1 human fibroblast cells; test: Secondary screening dose response, toxicity to HFF-1 cells; format: cell-based; conditions: Homo sapiens, HFF-1; 72 h; approximated from dose-response curves; read-out: HFF1 IC50
Protocol: as §2

[16] = system: H4 human neuroglioma cells; test: Secondary screening dose response, toxicity to H4 cells; format: cell-based; conditions: Homo sapiens; 72 h; approximated from dose-response curves
[17] = Balamuthia mandrillaris, read-out: IC50, B. mandrillaris cysts, preformed cysts, 12% galactose induction medium, 72 h
[18] = preformed cysts, 12% galactose induction medium, read-out: IC50, B. mandrillaris cysts
[19] = 28 µM for 72 h, then drug-free coculture with HFF-1, NRT = no recovery of trophozoites or host cell destruction observed through 28 days
[20] = 56 µM for 72 h, then drug-free coculture with HFF-1, 28-day experiment

Row | Structure (SMILES) | IC50 [1] [µM] | IC50 [2, 17] [µM] | IC50 [2, 18] [µM] | CC50 at 72 h [3] [µM] | CC50 at 72 h [4] [µM] | CC50 at 72 h [5] [µM] | CC50 at 72 h [6] [µM] | CC50 at 72 h [7] [µM] | CC50 at 72 h [8] [µM] | encystment response [9] | Mean no. of days for host cell clearance ± SE [10, 19] [days] | Mean no. of days for host cell clearance ± SE [10, 20] [days] | inhibition of amoebic growth [12] | further results
1 | CCCCCCCCCCCCCCCCOP(=O)([O-])OCC[N+](C)(C)C [Miltefosine] | 63.2 | 76.5 | 76.5 | 34.7 | 8.4 | 68.8 | 67.1 | 66.1 | 49 | no substantial number of cysts was observed at any concentration | 1.5 ± 0.33 | 3.5 ± 2.64 | amoebicidal or amoebistatic activity | Mean no. of days for host cell clearance ± SE ([10]; 84 µM for 72 h, incomplete recovery of trophozoites and destruction of host cells on day 28): >28^b days; concentration that completely eliminated B. mandrillaris populations ([10]; 72 h treatment, no recovery after 28 days of coculture): 112 µM; Mean no. of days for host cell clearance ± SE ([10]; […] for 72 h, NRT = no recovery of trophozoites or host cell destruction observed through 28 days): NRT^a; Percent inhibition of B. mandrillaris viability ([11]; Fig S2A, miltefosine 10 µM alone): -12%; Percent inhibition of B. mandrillaris viability ([11]; Fig S2A, miltefosine 30 µM alone): -13%; Percent inhibition of B. mandrillaris viability ([11]; Fig S2A, miltefosine 50 µM alone): 19%; Percent inhibition of B. mandrillaris viability ([11]; Fig S2A, miltefosine 60 µM alone): 44%; Percent inhibition of B. mandrillaris viability ([11]; Fig S2A, miltefosine 80 µM alone): 91%; Percent inhibition of B. mandrillaris viability ([11]; Fig S2A, miltefosine 100 µM alone): 96%
2 | CC[C@H]1OC(=O)[C@H](C)[C@@H](O[C@H]2C[C@@](C)(OC)[C@@H](O)[C@H](C)O2)[C@H](C)[C@@H](O[C@@H]2O[C@H](C)C[C@H](N(C)C)[C@H]2O)[C@](C)(O)C[C@@H](C)CN(C)[C@H](C)[C@@H](O)[C@]1(C)O [Azithromycin] | 244 |  |  | 55 | 95 | 120 | 116 | 86.4 | 94.4 | no substantial number of cysts was observed at any concentration |  |  | amoebicidal or amoebistatic activity | IC50 ([2]; Balamuthia mandrillaris, preformed cysts, 12% galactose induction medium, read-out: IC50, B. mandrillaris cysts): 788 µM
3 | N=C(N)c1ccc(OCCCCCOc2ccc(C(=N)N)cc2)cc1 [Pentamidine isethionate] | 9.1 | 26.3 | 26.3 | 20.7 | 5.7 | 4.8 | 23.4 | 0.7 | 11.1 | increase in both the total number and the proportion of cysts | 15.33 ± 2.56 | 16 ± 2 | amoebicidal or amoebistatic activity | inhibition at 20 µM [13]: 35%; IC50 [14]: 11 µM; IC50 [15]: > 30 µM; IC50 [16]: 8 µM; Mean no. of days for host cell clearance ± SE ([10]; 3.5 µM for 72 h, then drug-free coculture with HFF-1, 28-day experiment): 1.33 ± 0.33 days; Mean no. of days for host cell clearance ± SE ([10]; 7 µM for 72 h, then drug-free coculture with HFF-1, 28-day experiment): 7 ± 1.15 days; Mean no. of days for host cell clearance ± SE ([10]; 14 µM for 72 h, then drug-free coculture with HFF-1, 28-day experiment): 13 ± 2.51 days; Percent inhibition of B. mandrillaris viability ([11]; Fig S2B, pentamidine 1 µM alone): -1%; Percent inhibition of B. mandrillaris viability ([11]; Fig S2B, pentamidine 5 µM alone): 32%; Percent inhibition of B. mandrillaris viability ([11]; Fig S2B, pentamidine 10 µM alone): 51%; Percent inhibition of B. mandrillaris viability ([11]; Fig S2B, pentamidine 20 µM alone): 62%; Percent inhibition of B. mandrillaris viability ([11]; Fig S2B, pentamidine 50 µM alone): 68%; Percent inhibition of B. mandrillaris viability ([11]; Fig S2B, pentamidine 100 µM alone): 82%
